Data as given in patent US10471094B2, “Methods for reducing ischemia-reperfusion injury via targeted control of blood gases” (Cedars-Sinai Medical Center, priority 2013, dated 2019).

System: Canines
Experiment: Canine ischemia/reperfusion (I/R) protocol, 3 hours no-flow LAD occlusion then reperfusion, MRI at week 8
Assay type: in vivo
Excerpt: Canines (n=9) underwent left thoracotomy at the 4th intercostal space and a hydraulic occluder was secured around the left-anterior descending coronary artery after the first principal diagonal. Subsequently a Doppler flow probe was affixed distal to the hydraulic occluder and animals were allowed to recover for 7 days. Following recovery, animals were subjected to ischemia/reperfusion (I/R) protocol and studied with magnetic resonance imaging. The ischemia protocol consisted of inflicting no-flow ischemia by inflating the hydraulic occlude (confirmed by the Doppler flow velocity) for 3 hours. Subsequently all animals were reperfused by deflation of the hydraulic occluder.

[1] = 100% O2 versus room air during reperfusion, week 8

**Q.** For `O=O` [100% O2, oxygen], which “chronic scar size larger versus animals breathing room air during reperfusion” value [1] is on record?
**A.** approximately 25%

**Q.** And the “left ventricular ejection fraction (LVEF) reduced versus animals breathing room air during reperfusion” value [1]?
**A.** 12%

**Q.** What about the “LVEF at week 8 post MI” value (gas breathed during reperfusion, 3.0 T MRI, week 8 post I/R injury, left-ventricular ejection fraction) of the same molecule?
**A.** 39.7 +/− 4.9

**Q.** And the “Scar Volume at week 8 post MI (% LV)” value (gas breathed during reperfusion, 3.0 T MRI, week 8 post I/R injury, scar volume as percentage of left ventricular volume)?
**A.** 15.0 +/− 3.8 % LV
